Earlier results on one compound are cited in patent EP2322149A1, “Methods and compositions for the treatment of ischemia” (Universidad del Pais Vasco, priority 2009, dated 2011).

pIC50: −log10 of the molar value.

One series deals with T1, P2X4 (Homo sapiens, UniProt Q99571).
T1 sequence (Q99571 1-388): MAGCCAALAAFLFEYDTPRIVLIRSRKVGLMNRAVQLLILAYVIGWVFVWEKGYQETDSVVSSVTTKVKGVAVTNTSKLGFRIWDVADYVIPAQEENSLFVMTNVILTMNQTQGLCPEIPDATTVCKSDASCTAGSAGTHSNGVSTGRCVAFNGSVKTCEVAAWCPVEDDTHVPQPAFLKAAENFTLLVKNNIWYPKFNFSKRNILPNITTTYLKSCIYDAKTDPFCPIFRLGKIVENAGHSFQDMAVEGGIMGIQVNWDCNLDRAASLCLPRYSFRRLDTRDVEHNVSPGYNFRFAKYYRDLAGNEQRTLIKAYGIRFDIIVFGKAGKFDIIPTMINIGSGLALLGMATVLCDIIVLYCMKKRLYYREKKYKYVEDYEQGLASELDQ
The settings on record: read-out: IC50 P2X4; cited from earlier work.

The next series concerns the target P2X5 (Homo sapiens, UniProt Q93086). The following applies: cited from earlier work.
The next series addresses T2, P2X7 (Homo sapiens, UniProt Q99572).
T2 sequence (Q99572 1-595): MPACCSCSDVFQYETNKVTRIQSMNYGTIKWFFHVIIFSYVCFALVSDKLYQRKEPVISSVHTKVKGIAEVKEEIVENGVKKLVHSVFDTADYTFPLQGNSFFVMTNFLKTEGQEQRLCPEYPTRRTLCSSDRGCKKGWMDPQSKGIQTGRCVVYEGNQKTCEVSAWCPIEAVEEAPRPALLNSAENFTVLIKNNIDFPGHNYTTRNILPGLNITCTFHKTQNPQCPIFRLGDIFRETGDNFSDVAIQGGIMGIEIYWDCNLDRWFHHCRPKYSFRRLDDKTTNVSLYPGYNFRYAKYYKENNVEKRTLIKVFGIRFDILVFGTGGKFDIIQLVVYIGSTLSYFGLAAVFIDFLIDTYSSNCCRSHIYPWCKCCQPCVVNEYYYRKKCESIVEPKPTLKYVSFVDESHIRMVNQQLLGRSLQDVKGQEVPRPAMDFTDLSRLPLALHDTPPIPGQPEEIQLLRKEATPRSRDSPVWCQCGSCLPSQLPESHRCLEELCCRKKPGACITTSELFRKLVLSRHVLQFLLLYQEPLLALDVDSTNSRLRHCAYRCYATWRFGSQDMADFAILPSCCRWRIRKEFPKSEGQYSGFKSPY
The following applies: cited from earlier work.

The target of another series is T3, P2X1 (Homo sapiens, UniProt P51575).
T3 sequence (P51575 1-399): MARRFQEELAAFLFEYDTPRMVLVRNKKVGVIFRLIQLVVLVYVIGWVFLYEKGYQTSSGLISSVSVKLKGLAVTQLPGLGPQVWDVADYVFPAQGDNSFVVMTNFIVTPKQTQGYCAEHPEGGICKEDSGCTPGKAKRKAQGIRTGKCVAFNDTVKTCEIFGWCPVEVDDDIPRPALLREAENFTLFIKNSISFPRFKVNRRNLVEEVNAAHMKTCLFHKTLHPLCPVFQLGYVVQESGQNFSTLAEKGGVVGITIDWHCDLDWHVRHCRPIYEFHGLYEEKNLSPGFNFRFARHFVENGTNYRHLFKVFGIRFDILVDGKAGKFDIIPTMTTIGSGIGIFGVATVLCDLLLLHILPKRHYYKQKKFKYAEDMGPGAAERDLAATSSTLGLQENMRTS
The following applies: read-out: IC50 P2X1; cited from earlier work.

The target in another series is T4, P2X3 (Homo sapiens, UniProt P56373).
T4 sequence (P56373 1-397): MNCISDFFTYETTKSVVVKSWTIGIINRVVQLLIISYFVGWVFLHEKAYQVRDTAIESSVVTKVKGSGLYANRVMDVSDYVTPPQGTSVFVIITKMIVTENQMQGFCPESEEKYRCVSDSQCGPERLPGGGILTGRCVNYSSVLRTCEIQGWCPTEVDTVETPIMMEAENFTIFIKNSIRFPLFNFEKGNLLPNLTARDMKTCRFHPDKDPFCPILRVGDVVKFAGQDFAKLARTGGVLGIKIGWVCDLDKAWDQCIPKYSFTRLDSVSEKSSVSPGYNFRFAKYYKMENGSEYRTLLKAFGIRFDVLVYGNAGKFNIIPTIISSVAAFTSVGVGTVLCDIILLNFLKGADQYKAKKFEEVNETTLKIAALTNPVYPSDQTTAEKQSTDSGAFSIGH
The following applies: read-out: IC50 P2X3; cited from earlier work.

The target of another series is P2X6 (Homo sapiens, UniProt O15547). The settings on record: read-out: IC50 P2X6; cited from earlier work.
Another series addresses T5, P2X2 (Homo sapiens, UniProt Q9UBL9).
T5 sequence (Q9UBL9 1-471): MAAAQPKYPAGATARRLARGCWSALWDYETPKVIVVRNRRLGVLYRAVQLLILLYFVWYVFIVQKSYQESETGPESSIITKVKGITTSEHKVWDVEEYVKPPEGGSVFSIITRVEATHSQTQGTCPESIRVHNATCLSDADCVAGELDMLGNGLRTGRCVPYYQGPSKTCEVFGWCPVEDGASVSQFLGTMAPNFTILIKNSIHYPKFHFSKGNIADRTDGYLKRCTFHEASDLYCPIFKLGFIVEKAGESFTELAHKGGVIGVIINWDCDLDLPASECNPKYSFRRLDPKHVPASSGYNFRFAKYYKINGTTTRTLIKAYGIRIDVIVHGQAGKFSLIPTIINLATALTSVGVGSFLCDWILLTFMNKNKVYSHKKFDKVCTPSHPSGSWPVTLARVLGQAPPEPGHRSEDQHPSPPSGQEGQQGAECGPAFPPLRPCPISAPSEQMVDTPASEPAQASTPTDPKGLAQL
The settings on record: read-out: IC50 P2X2; cited from earlier work.

P2X6, sequence (O15547 whole entry, species assumed): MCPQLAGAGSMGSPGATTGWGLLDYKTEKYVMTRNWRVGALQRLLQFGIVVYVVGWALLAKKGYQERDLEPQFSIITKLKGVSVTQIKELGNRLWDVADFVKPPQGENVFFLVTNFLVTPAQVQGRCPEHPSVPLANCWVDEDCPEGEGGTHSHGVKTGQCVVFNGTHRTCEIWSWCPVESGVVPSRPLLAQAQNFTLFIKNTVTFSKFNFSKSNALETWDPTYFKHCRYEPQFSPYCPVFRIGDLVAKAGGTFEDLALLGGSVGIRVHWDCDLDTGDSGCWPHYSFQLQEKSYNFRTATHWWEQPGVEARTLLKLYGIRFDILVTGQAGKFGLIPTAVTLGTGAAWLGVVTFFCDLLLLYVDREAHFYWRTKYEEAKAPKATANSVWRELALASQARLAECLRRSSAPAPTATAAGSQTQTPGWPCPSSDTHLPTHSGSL
P2X5, sequence (Q93086 whole entry, species assumed): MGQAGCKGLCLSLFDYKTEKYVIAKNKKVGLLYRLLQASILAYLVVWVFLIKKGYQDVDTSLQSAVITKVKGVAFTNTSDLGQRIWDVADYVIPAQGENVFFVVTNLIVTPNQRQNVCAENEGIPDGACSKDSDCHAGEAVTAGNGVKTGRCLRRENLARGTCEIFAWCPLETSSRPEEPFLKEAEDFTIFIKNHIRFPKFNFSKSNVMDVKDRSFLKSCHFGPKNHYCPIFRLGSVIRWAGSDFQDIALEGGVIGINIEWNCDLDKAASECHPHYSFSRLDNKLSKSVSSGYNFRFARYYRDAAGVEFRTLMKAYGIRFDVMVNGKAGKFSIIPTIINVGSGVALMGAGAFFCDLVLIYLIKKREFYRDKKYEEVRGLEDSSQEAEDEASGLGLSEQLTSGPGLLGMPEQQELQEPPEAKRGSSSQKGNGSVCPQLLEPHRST

In the case of `Cc1cc(-c2ccc(/N=N/c3ccc4c(S(=O)(=O)O)cc(S(=O)(=O)O)c(N)c4c3O)c(C)c2)ccc1/N=N/c1ccc2c(S(=O)(=O)O)cc(S(=O)(=O)O)c(N)c2c1O` [Evans Blue], the negative-log IC50 (pIC50) (in general, −log10 of the IC50, conventionally taken in molar units) on P2X4 is 3.40 to 6.00; on P2X5, 3.40 to 6.00; on P2X7 it was 3.40 to 6.00; on P2X1, 2.85; at P2X3 it was 2.85; on P2X6, 3.40 to 6.00. Also, the negative-log IC50 (pIC50) on P2X2 is 3.40 to 6.00.
